Paper PMC12114510, “Antimicrobial, Antioxidant, and α-Glucosidase-Inhibitory Activities of Prenylated p-Hydroxybenzoic Acid Derivatives from Oberonia ensiformis” (Molecules, 2025)
Counter-ions that a name gives are not always drawn.

What was measured:
[1] = test system: α-glucosidase; assay: α-Glucosidase inhibition assay (PNPG method); format: biochemical; settings: for IC50, inhibition of α-glucosidase: mean ± SD, PNPG method, 5 and 6 tested as epimeric mixtures
Method: The inhibitory activity of the obtained compounds on α-glucosidase was evaluated using the method mentioned in previous studies with minor modifications. […] Subsequently, 50 μL of 5.0 mM p-Nitrophenyl α-D-glucopyranoside (pNPG, dissolved in 0.1 M PB, pH 6.8) was added to the mixture. After incubation at 37 °C for 30 min, the reaction was stopped by adding 80 μL of 0.2 M sodium carbonate solution (dissolved in ultrapure water) to the reaction system. The absorbance value was measured at 405 nm using a microplate reader. […] Ac: Absorbance of the reaction system containing 20 μL PBS, 50 μL α-glucosidase, and 50 μL pNPG.

[2] = DPPH radical scavenging (antioxidant) assay; settings: for IC50, clearance rate of DPPH: mean ± SD, 5 and 6 tested as epimeric mixtures
Method: The activity screening of 18 compounds isolated from O. ensiformis was carried out using 96-well plates and an enzyme labeler with DPPH methanol solution as substrate (0.15 mmol/L) and sodium ascorbate as positive control. The gradient mass concentration of the samples to be tested was 200, 100, 50, 25, 12.5 μg/mL and then divided into a sample group (100 μL DPPH solution + 100 μL sample, A), a sample control group (100 μL methanol + 100 μL sample, A0), and a negative control (100 μL DPPH solution + 100 μL methanol, A1). The samples to be tested were fully reacted under light-avoiding conditions, and the OD values were determined at 517 nm after 30 min [23]. The experiments were performed three times in parallel, and the DPPH radical scavenging rate was calculated. The scavenging rate of DPPH radical was calculated according to the following equation [24].E = [1 − (A − Aa)/Ab] × 100% A:100 μL of test compounds or L-Ascorbic Acid Sodium Salt and 100 μL of DPPH. Aa: 100 μL of test compounds or L-Ascorbic Acid Sodium Salt and 100 μL of MeOH. Ab: 100 μL of MeOH and 100 μL of DPPH.

| inhibitory activity against α-glucosidase (in words) [1] | IC50, inhibition of α-glucosidase [1] | IC50, clearance rate of DPPH [2] | Structure (SMILES) | DPPH radical scavenging activity [2] |
| --- | --- | --- | --- | --- |
| weak | 106.10 ± 2.12 µg/mL | – | C=C(C)C(O)Cc1cc(C(=O)OC(C)C(C)(O)C(=O)O)cc(CC=C(C)C)c1O (centres unmarked) [Compound 5, Oberoniaensiformisin E] | – |
| moderate | 58.07 ± 6.22 µg/mL | 173.76 ± 23.92 µg/mL | C=C(C)C(O)Cc1cc(C(=O)O[C@@H]2CC(C(=O)O)=C[C@@H](O)[C@H]2O)cc(CC=C(C)C)c1O (some centres unmarked) [Compound 6, oberoniaensiformisin F] | > 50% |
| no significant activity | – | – | C=C(C)C(O)Cc1cc(C(=O)O)cc2c1OC(C)(C)C=C2 (centres unmarked) [Compound 10, liparacid A] | – |
| no significant activity | – | – | C=C(C)C(O)Cc1cc(C(=O)O)cc(CCC(C)(C)O)c1O (centres unmarked) [Compound 11, oberoniamyosurusin E] | – |
| strong | 34.03 ± 0.16 µg/mL | 185.36 ± 1.96 µg/mL | CC(C)=CCc1cc(C(=O)O)cc(CC=C(C)C)c1O [Compound 12, nervogenic acid] | > 50% |
| moderate | 86.53 ± 1.08 µg/mL | – | CC(C)=CCc1cc(C(=O)O[C@@H]2CC(C(=O)O)=C[C@@H](O)[C@H]2O)cc2c1OC(C)(C)C=C2 [Compound 13, oberoniamyosurusin L] | – |
| strong | 38.80 ± 4.43 µg/mL | – | CC(C)=CCc1cc(C(=O)O)cc2c1OC(C(C)(C)O)C2 (centres unmarked) [Compound 15, oberoniamyosurusins I] | – |
| no significant activity | – | – | CC(C)(O)CCc1cc(C(=O)O)cc2c1OC(C)(C)C=C2 [Compound 16, 1iparacids C] | – |
| no significant activity | – | – | CC(C)(O)CCc1cc(C(=O)O)cc(CCC(C)(C)O)c1O [Compound 17, oberoniamyosurusin F] | – |
| no significant activity | – | – | C=C(C)C(O)Cc1cc(C(=O)O)cc(CC(O)C(=C)C)c1O (centres unmarked) [Compound 18, liparacid B] | – |
| – | – | 2.37 ± 0.11 µg/mL | O=C1O[C@H]([C@@H](O)CO)C(O)=C1O [L-ascorbate, L-Ascorbic Acid Sodium Salt, reference compound] | – |
